Laboratory results as given in ChEMBL document CHEMBL1201862, “PubChem BioAssay data set” (2004).
Active and inactive are the calls of the source.

Columns and labels:
INS1 = test: beta cell apoptosis inhibitors, cytokine rescue, dose response, luminescence, retest (AID 449756); format: functional, cell-based; conditions: Rattus norvegicus;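 further: cell death triggered by IL-1 beta plus TNF-alpha plus IFN-gamma mixture; protective hits raise ATP signal compared with cytokine alone wells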
Coagulation factor XII = molecular target: T1, Coagulation factor XII (Homo sapiens, UniProt P00748); format: functional;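 further: activated factor XIIa alpha cleaving a fluorogenic AMC peptide substrate; inhibitor potency from loss of enzyme activity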
T1 sequence (P00748 whole entry): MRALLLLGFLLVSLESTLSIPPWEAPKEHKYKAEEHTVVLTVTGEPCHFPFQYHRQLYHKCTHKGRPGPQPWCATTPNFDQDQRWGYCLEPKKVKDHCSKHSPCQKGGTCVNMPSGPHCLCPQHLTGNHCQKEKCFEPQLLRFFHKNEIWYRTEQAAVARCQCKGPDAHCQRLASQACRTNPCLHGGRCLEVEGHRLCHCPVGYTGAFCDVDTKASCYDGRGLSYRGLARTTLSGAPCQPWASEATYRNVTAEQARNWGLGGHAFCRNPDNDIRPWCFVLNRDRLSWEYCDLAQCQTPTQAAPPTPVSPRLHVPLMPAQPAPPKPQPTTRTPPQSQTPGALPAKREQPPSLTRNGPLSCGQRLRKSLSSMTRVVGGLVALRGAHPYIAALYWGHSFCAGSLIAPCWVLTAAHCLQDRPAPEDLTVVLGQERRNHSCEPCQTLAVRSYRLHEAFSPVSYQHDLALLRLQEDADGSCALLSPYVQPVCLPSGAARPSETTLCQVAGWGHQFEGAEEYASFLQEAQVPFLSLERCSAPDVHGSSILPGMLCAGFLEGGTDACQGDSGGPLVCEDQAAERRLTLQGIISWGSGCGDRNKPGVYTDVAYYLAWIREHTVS

[1] = molecular target: T2, Calpain-2 catalytic subunit (Sus scrofa, UniProt P43367); test: pig calpain II inhibitor potency, dose response, biochemical, fluorogenic peptide substrate (AID 1420); format: functional
T2 sequence (P43367 whole entry): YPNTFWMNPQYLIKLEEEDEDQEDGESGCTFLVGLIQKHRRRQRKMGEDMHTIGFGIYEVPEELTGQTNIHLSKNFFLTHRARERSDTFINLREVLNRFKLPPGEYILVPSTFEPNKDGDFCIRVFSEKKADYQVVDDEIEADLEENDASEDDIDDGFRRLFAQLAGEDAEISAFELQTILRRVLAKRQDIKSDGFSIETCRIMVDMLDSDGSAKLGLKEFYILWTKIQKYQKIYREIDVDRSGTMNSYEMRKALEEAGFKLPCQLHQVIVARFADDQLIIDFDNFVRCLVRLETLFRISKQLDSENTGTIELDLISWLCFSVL

[2] = C. albicans growth with fluconazole, confirmation, fluorescence, retest (AID 2467); format: functional, cell-based
[3] = molecular target: T3, High affinity choline transporter 1 (Homo sapiens, UniProt Q9GZV3); test: CHT inhibitors, dose response, cell-based, 5-point CRC, membrane potential dye (AID 504840); format: functional
T3 sequence (Q9GZV3 whole entry): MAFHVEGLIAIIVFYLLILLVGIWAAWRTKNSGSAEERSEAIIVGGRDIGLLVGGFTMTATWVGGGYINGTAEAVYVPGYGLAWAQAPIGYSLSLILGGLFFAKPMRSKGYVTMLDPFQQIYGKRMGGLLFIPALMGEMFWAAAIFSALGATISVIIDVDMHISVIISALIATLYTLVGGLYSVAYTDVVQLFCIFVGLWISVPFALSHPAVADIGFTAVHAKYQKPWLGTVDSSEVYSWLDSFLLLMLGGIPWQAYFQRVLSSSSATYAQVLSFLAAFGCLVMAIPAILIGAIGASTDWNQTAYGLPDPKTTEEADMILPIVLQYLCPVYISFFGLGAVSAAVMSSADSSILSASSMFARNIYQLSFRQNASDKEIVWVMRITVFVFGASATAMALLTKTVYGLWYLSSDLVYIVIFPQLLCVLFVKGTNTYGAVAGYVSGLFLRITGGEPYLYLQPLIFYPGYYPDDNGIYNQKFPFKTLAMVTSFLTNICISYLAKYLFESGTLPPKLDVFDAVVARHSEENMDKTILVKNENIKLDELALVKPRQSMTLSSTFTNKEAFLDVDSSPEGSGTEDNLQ

[4] = NIH-3T3 fibroblast cytotoxicity, dose response, cytotoxicity control, cell-based, fluorescence, Alamar Blue, secondary assay (AID 2327); format: functional;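 further: NIH-3T3 mouse fibroblasts cultured with fluconazole at 8 µg/mL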
[5] = growth suppression of beta-catenin-knockout colon cells, dose response, cell-based, HCT116, human colon tumor (AID 1045); format: functional;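 further: HCT116 colon tumor cells with beta catenin knocked out; cells exposed to compound for 60 hours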
[6] = growth suppression of PTEN-null colon cells, dose response, cell-based, HCT116 PTEN knockout (AID 1047); format: functional;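 further: HCT116 colon tumor cells with PTEN knocked out; cells exposed to compound for 60 hours before readout; potency for loss of cell viability measured by luminescence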
Vero [7] = test: cells; format: functional; conditions: Chlorocebus sabaeus
[8] = cytotoxicity in HEK-293T cells, dose response, cytotoxicity control for TCR NF-kB inhibitor project, luminescence, T-cell screen hits (AID 489026); format: functional, cell-based;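 further: cells exposed to compound about 14 hours before the viability readout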
[9] = molecular target: Eukaryotic translation initiation factor 4E (Mus musculus, UniProt P63073); test: eIF4E–eIF4G protein interaction inhibitors, dose response, biochemical, TR-FRET (AID 855); format: functional;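 further: potency for disrupting eIF4E binding to eIF4GI seen as loss of FRET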
Eukaryotic translation initiation factor 4E, sequence (P63073 whole entry): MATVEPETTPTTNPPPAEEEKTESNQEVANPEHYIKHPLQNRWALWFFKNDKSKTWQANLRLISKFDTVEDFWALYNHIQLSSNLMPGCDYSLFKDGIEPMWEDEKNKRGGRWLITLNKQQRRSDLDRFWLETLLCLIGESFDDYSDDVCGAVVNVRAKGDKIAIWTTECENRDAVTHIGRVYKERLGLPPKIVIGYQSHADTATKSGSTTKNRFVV

[10] = molecular target: T4, Ubiquitin-conjugating enzyme E2 N (Homo sapiens, UniProt P61088); format: functional;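 further: Dose-response confirmation in a TR-FRET assay detecting UBC13-driven polyubiquitin chain formation, inhibition measured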
T4 sequence (P61088 whole entry): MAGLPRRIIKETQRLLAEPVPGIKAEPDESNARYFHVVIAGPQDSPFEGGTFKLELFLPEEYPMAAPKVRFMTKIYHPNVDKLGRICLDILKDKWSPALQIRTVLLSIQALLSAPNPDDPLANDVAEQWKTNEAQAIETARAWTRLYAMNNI

[11] = molecular target: Heat shock protein HSP 90-alpha (Homo sapiens, UniProt P07900); format: functional, organism-based
[12] = molecular target: T5, Apoptotic protease-activating factor 1 (Homo sapiens, UniProt O14727); format: functional
T5 sequence (O14727 whole entry): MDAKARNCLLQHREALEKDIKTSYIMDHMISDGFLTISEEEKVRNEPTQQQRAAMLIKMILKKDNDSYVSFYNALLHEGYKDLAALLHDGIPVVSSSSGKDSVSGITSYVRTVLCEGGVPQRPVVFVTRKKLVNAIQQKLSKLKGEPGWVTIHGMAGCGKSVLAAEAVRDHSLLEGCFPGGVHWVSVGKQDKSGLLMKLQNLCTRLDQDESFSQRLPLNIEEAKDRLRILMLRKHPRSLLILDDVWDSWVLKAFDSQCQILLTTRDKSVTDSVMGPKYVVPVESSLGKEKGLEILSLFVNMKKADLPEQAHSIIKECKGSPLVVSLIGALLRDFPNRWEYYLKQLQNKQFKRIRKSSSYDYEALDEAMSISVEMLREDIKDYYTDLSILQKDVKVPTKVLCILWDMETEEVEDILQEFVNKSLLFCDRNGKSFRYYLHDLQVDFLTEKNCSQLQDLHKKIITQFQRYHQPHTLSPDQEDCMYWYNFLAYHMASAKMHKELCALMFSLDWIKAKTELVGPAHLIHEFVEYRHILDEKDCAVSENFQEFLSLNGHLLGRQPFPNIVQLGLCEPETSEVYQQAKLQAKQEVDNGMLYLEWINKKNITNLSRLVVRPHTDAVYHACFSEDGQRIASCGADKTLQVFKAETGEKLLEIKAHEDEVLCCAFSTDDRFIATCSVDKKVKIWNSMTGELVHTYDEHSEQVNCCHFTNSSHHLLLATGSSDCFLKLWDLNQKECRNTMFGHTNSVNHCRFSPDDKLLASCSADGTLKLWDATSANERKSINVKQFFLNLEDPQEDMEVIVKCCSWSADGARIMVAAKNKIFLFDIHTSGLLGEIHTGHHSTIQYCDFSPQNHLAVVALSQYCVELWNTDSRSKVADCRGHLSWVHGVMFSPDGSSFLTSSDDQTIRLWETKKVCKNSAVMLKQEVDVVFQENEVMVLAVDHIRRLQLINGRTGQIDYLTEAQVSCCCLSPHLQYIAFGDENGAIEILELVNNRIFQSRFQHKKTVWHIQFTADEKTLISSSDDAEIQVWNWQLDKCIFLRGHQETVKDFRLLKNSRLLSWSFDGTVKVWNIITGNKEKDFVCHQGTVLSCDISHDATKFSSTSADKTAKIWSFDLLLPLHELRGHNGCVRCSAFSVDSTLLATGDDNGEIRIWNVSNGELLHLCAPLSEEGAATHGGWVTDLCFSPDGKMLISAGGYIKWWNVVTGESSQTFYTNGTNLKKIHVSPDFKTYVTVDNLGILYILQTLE

[13] = molecular target: Beta-2 adrenergic receptor (Homo sapiens, UniProt P07550); test: beta2AR agonists driving receptor internalization, dose response, cell-based, FAP fluorogen, flow cytometry, cherry pick 1 (AID 588763); format: functional
Beta-2 adrenergic receptor, sequence (P07550 whole entry): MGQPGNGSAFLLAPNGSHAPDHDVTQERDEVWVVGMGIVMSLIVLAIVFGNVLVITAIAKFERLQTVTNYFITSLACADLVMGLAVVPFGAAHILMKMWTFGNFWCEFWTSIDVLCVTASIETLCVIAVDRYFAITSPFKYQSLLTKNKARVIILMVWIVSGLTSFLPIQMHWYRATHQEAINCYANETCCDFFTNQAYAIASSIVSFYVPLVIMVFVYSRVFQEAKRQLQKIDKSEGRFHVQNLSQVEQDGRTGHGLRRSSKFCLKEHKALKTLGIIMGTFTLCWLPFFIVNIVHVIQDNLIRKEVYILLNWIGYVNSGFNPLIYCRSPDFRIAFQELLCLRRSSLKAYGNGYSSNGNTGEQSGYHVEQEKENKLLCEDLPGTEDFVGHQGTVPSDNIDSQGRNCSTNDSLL

[14] = cytotoxicity toward DRD oncogenic fibroblasts, dose response, cell-based, non-viral oncogenic, luminescence (AID 1934); format: functional; conditions: Homo sapiens
Vero [15] = test: cells; format: functional, cell-based; conditions: Chlorocebus sabaeus
BJ [16] = test: cells; format: functional, cell-based; conditions: Homo sapiens
BJ [17] = test: cytotoxicity toward BJ-TERT fibroblasts, dose response, cell-based, RAS-independent, luminescence (AID 1933); format: functional; conditions: Homo sapiens
BJ [18] = test: cytotoxicity toward BJ-TERT-LT-ST fibroblasts, dose response, cell-based, RAS-independent, luminescence (AID 1935); format: functional; conditions: Homo sapiens;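 further: BJ fibroblasts immortalized with TERT plus LT and ST oncogenes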

c1ccc(-c2csc3ncnc(NCC4COc5ccccc5O4)c23)cc1 (configuration not stated)
AC50 (INS1): 1.41 µM (active) | IC50 (Coagulation factor XII): > 50 µM (inactive)

C=CCNC(=S)N/N=C/c1ccc(C)c([N+](=O)[O-])c1
IC50 [1]: 3.49 µM (not active) | IC50 (Coagulation factor XII): > 50 µM (inactive)

CCOC(=O)c1nc(NNC(=O)c2ccc([N+](=O)[O-])cc2)sc1C
EC50 [2]: 2.62 µM (active) | AC50 (INS1): 2.7 µM (active) | IC50 [3]: 9.91 µM (active) | EC50 [4]: 30.9 µM (active)

CCCCCCCCCCCCCCCC[n+]1cccc(C(=O)N(CC)CC)c1
EC50 [2]: > 38 µM (not active) | AC50 (INS1): 4.92 µM (active) | EC50 [5]: 5.92 µM (active) | EC50 [6]: 6.46 µM (active) | CC50 (Vero [7]): 18.1 µM (active) | IC50 [8]: 24.8 µM (inactive) | IC50 [9]: 28.9 µM (active) | IC50 [10]: > 20 µM (inactive) | EC50 [4]: 41.8 µM (active) | AC50 [11]: 2.89 µM (active) | IC50 [12]: 21.5 µM (active)

N#CC1=C(N)OC2=C(CCc3ccccc32)C1c1ccccc1 (configuration not stated)
EC50 [13]: 52.5 µM (inactive) | EC50 [14]: 0.61 µM (active) | IC50 (Vero [15]): > 25 µM (active) | EC50 (BJ [16]): 13.5 µM (active) | EC50 (BJ [17]): 0.645 µM (inconclusive) | CC50 (Vero [7]): 0.17 µM (active) | EC50 (BJ [18]): 0.689 µM (inconclusive)

CCOc1ccc2nc(NC(=O)CSc3nc4cccnc4n3C)sc2c1
EC50 [13]: 2.44 µM (active)
